# Experimental data reported in US8647651B2, “Synergistic mixtures of C6- to C12-alkanediols and tropolone (derivatives)” (priority 2005, dated 2014).
# System: Aspergillus niger ATCC 16404
# Assay: Testing for adequate preservation (European Pharmacopoeia) of O/W emulsion, Example 1
# Type: cell-based
# Settings: for Aspergillus niger germ count: O/W emulsion pH 5.5, 0.5% product A, 0.01% product B, 0.31% product C
# Procedure: Testing for adequate preservation was carried out in accordance with the European Pharmacopoeia. Testing thus comprises contamination of the formulation, if possible in its final condition, with a prescribed inoculum of suitable microorganisms, storage of the inoculated formulation at a certain temperature, removal of samples from the container at certain intervals of time and determination of the number of microorganisms in the samples removed in this way. The preserving properties are adequate if, under the conditions of the test, a clear reduction or, where appropriate, no increase in the germ count results in the inoculated formulations after the prescribed times at the prescribed temperatures. Experimental details of the test procedure are described in the European Pharmacopoeia (ISBN 3-7692-2768-9; Supplement 2001 to the 3rd Edition, page 421-422, chapter 5.1.3). The following microorganism strains were used for the tests for adequate preservation: • A: Escherichia coli ATCC 8739 • B: Pseudomonas aeruginosa ATCC 9027 • C: Staphylococcus aureus ATCC 6538 • D: Candida albicans ATCC 10231 • E: Aspergillus niger ATCC 16404 The initial germ count (CFU/g; “0 value”) was in the range of from 250,000 to 320,000 in the various test series. Formulation: For the tests for adequate preservation, a defined amount of the active compound combination according to the invention (product C) was incorporated into an O/W emulsion. For comparison purposes, the comparison products (product A and B) were incorporated into separate O/W emulsions. [table] The results of the preservative stress tests for Aspergillus niger for the active compound combinations investigated, comprising the mixture according to the invention (product C) or the comparison systems (products A and B) are compared in Table 2. The synergistic effect of the mixture according to the invention (product C) manifests itself here above all in the residual germ counts for Aspergillus niger which remain after 28 days.
compound,measurement,setting,value
"O=c1cccccc1O [product B, 2,4,6-cycloheptatrien-1-one, 2-hydroxy]",reduction in the number of colony-forming units (CFU) of Aspergillus niger,"28 days, product A 0.5 wt. %",no such significant reduction
same,Aspergillus niger germ count,day 0 (initial germ count),"280,000 CFU/ml"
same,Aspergillus niger germ count,day 2,"72,000 CFU/ml"
same,Aspergillus niger germ count,day 7,"2,000 CFU/ml"
same,Aspergillus niger germ count,day 14,"4,800 CFU/ml"
same,Aspergillus niger germ count,day 28,100 CFU/ml
